The test system of the test is Plutella xylostella. Briefly: whole plant or invertebrate. Conditions: foliar, cabbage leaf dip, second instar larvae, dead and moribund combined, 72 h after release. In kind it is in vivo. The method, then:
Test Solutions were Prepared According to the Procedure Described Herein Below (500 PPM):
• 1. Eppendorf Vortex mixer (ThermoMixer C) and 1.5 mL Eppendorf tubes • 2. Zirconia (Zirconium-Yttrium) beads having diameter of 0.8 to 1.0 mm • 3. Microscope • 4. Beaker 100 mL • 5. Micro-pipette Reagents: • 1. Surfactant Solution • 2. De-mineralized (DM) Water • 1. Weigh 10 mg of the compound of the present invention to be tested in an Eppendorf Tube. • 2. Add 200 mg of the Surfactant Solution into the tube. • 3. Add 600 mg of Zirconia beads into the above mixture. • 4. Fix the tube in Eppendorf Vortex mixer and start vortexing at 2000 rpm. • 5. Mix on Vortex mixer for 30 minutes. After 30 minutes, observe the sample over a microscope at 400× resolution. • 6. If the Maximum particle size is more than 5 μm or average particle size is more than 2 μm or the particle size distribution is uneven, continue vortexing for another 30 minutes and again check the particle size using the microscope. Continue till the average particle size is below 2 microns. • 7. When the required particle size is achieved, add 1.0 mL DM water into the tube, close the cap, shake the tube thoroughly and transfer the contents, along with the beads, into a beaker. • 8. To rinse the tube, add another 1.0 mL of DM water into the tube, close the cap, shake well and transfer this into the same beaker. • 9. Repeat Step no. 8 one more time so that the tube is rinsed well and the compound of the present invention to be tested is transferred to the beaker. • 10. Add 16.8 mL of DM water into the beaker and stir well. • 11. The homogeneous dispersion can then be decanted into a glass vial, immediately, to separate the Zirconia beads. • 12. Immediately use this sample for biological testing. • 13. Further dilutions can be prepared by taking appropriate quantity of the aliquot of Step 10, immediately after stirring, and diluting as per requirement. The sample solution must be well mixed just before biological testing.
Leaf dip method was used for screening, wherein the required quantity of the compounds were weighed and dissolved in the test solution into the tube and vortex at 2000 rpm with Zirconia beads for 90 min for proper mixing, then mixed with 0.01% Triton-X solution to get the desired test concentration. Cabbage leaves were dipped in the solution for 10 seconds, shade dried for 20 min and then transferred to bioassay trays. Single second instar larva was released into each cell and the tray was covered with lid. The bio-assay trays were kept under laboratory conditions at a temperature of 25° C. and relative humidity of 70%. Observations on dead, moribund and live larvae were recorded at 72 h after the release. Percent mortality was calculated by combining dead and moribund larvae. The following compound num.
Broadly, the mortality is the percentage killed. Regarding `COc1cc(C(=O)Nc2c(C)cc3ccnn3c2C(=O)NC(C)CCC(C)C)n(-c2ncccc2Cl)n1` (stereo not shown) [Compound 210, 6-(1-(3-chloropyridin-2-yl)-3-methoxy-1H-pyrazole-5-carboxamido)-5-methyl-N-(5-methylhexan-2-yl)pyrazolo[1,5-a]pyridine-7-carboxamide], the mortality at 300 ppm was greater than 70%. `COc1cc(C(=O)Nc2c(Cl)cc3ccnn3c2C(=O)NCC#N)n(-c2ncccc2Cl)n1` [Compound 149, 5-chloro-6-(1-(3-chloropyridin-2-yl)-3-methoxy-1H-pyrazole-5-carboxamido)-N-(cyanomethyl)pyrazolo[1,5-a]pyridine-7-carboxamide]: the mortality at 300 ppm was greater than 70%. With `COc1cc(C(=O)Nc2c(Br)cc3ccnn3c2C(=O)NC2(C)CC2)n(-c2ncccc2Cl)n1` [Compound 223, 5-bromo-6-(1-(3-chloropyridin-2-yl)-3-methoxy-1H-pyrazole-5-carboxamido)-N-(1-methylcyclopropyl)pyrazolo[1,5-a]pyridine-7-carboxamide], the mortality at 300 ppm is greater than 70%. For the compound `Cc1cc2ccnn2c(C(=O)NC2CONC2=O)c1NC(=O)c1cc(C(F)(F)F)nn1-c1ncccc1Cl` (stereo not shown) [Compound 128, 6-(1-(3-chloropyridin-2-yl)-3-(trifluoromethyl)-1H-pyrazole-5-carboxamido)-5-methyl-N-(3-oxoisoxazolidin-4-yl)pyrazolo[1,5-a]pyridine-7-carboxamide], the mortality at 300 ppm is greater than 70%. Consider `Cc1cc2ccnn2c(C(=O)NC2CC2)c1NC(=O)c1cc(Oc2cc(C(F)(F)F)nn2C)nn1-c1ncccc1Cl` [Compound 79, 6-(1-(3-chloropyridin-2-yl)-3-((1-methyl-3-(trifluoromethyl)-1H-pyrazol-5-yl)oxy)-1H-pyrazole-5-carboxamido)-N-cyclopropyl-5-methylpyrazolo[1,5-a]pyridine-7-carboxamide], for which the mortality at 300 ppm is greater than 70%. With `Cc1cc2ccnn2c(C(=O)N2CC(F)(F)C2)c1NC(=O)c1cc(Br)nn1-c1ncccc1Cl` [Compound 23, 3-bromo-1-(3-chloropyridin-2-yl)-N-(7-(3,3-difluoroazetidine-1-carbonyl)-5-methylpyrazolo[1,5-a]pyridin-6-yl)-1H-pyrazole-5-carboxamide] the figure was greater than 70%. `CCNC(=O)c1c(NC(=O)c2cc(Oc3cc(C(F)(F)F)nn3C)nn2-c2ncccc2Cl)c(C)cc2ccnn12` [Compound 70, 6-(1-(3-chloropyridin-2-yl)-3-((1-methyl-3-(trifluoromethyl)-1H-pyrazol-5-yl)oxy)-1H-pyrazole-5-carboxamido)-N-ethyl-5-methylpyrazolo[1,5-a]pyridine-7-carboxamide]: the mortality at 300 ppm was greater than 70%. As for `COc1cc(C(=O)Nc2c(C)cc3ccnn3c2C(=O)NC(C)C(C)C)n(-c2ncccc2Cl)n1` (stereo not shown) [Compound 212, 6-(1-(3-chloropyridin-2-yl)-3-methoxy-1H-pyrazole-5-carboxamido)-5-methyl-N-(3-methylbutan-2-yl)pyrazolo[1,5-a]pyridine-7-carboxamide], the mortality at 300 ppm is greater than 70%. Regarding `CCCNC(=O)c1c(NC(=O)c2cc(OCC(F)(F)F)nn2-c2ncccc2Cl)c(C)cc2ccnn12` [Compound 11, 6-(1-(3-chloropyridin-2-yl)-3-(2,2,2-trifluoroethoxy)-1H-pyrazole-5-carboxamido)-5-methyl-N-propylpyrazolo[1,5-a]pyridine-7-carboxamide], the mortality at 300 ppm is greater than 70%. For `CNC(=O)c1c(NC(=O)c2cc(Oc3cc(C(F)(F)F)nn3C)nn2-c2ncccc2Cl)c(C)cc2ccnn12` [Compound 69, 6-(1-(3-chloropyridin-2-yl)-3-((1-methyl-3-(trifluoromethyl)-1H-pyrazol-5-yl)oxy)-1H-pyrazole-5-carboxamido)-N,5-dimethylpyrazolo[1,5-a]pyridine-7-carboxamide], the mortality at 300 ppm was greater than 70%.
